Reference: US20130061339A1, “METHOD OF DIAGNOSING TRICHOTILLOMANIA AND SIMILAR DISORDERS IN HUMANS AND RODENTS” (Purdue Research Foundation, priority 2011, published 2013)

How the values were obtained:
[1] = standardized reductive capacity of urine after treatment; format: in vivo, mouse; settings: 24 weeks, NAC 1 g/kg/day in feed, mice that were and were not barbers at the start; P=0.0244
Description: (§1) Thirty-two female adult C57BL/6J mice (14 barbers and 18 non-barbers) were separated into cages with no barbers, and cages with at least one barber. Cages with no barbers were fed a diet to induce barbering, as per Dufour, et al.. Cages with barbers were fed a regular mouse diet. Half the cages in each group had their feed supplemented with NAC, at a dose of 1 g/kg/day per mouse. Urine was collected at baseline and 24 weeks, to measure: reductive capacity, which reflects the sum of unused antioxidants from the diet, and antioxidants produced to defend the body. The level of 8 hydroxy-2-deoxyguanosine (8-OH-dG) which measures DNA damage from ongoing oxidative stress was also measured at 24 weeks only. Urine concentration was controlled by measuring creatinine. Six animals provided urine too dilute for analysis. Barbering and patterns of hair loss were recorded every 2 weeks. Data were analyzed using generalized linear model (GLM) and logistic regression using JMP statistical software, available from SAS, Cary N.C.

[2] = system: trichotillomania patients; settings: 50 trichotillomania patients, randomized double-blind placebo study [2]; cited from earlier work
[3] = system: barbering behavior in C57BL/6J mice; test: barbering in mice after 24 weeks of feed supplemented with NAC; format: in vivo, mouse; settings: NAC 1 g/kg/day in feed, vs mice not treated with NAC, P=0.0152
Description: as §1

In the case of `CC(=O)N[C@@H](CS)C(=O)O` [NAC, N-acetylcysteine], the “standardized reductive capacity of urine after treatment” value [1] is given as “only increases reductive capacity in healthy mice”, the “patients in whom symptoms were reduced” value [2] is given as 56% and the “proportion of mice barbering after 24 weeks of treatment (curative effect)” value ([3]; mice that were barbers at the start, regular diet) is given as “fewer mice treated with NAC were barbering”. The “proportion of mice barbering after 24 weeks of treatment (preventative effect)” value ([3]; mice that were not barbers at the start, barbering-inducing diet) was “fewer mice treated with NAC were barbering”.
